# The source made the active and inactive calls. The rule behind the calls is not given here.
# Assays:
# Format in all cases: functional
# Bacillus subtilis [1] = assay: Antibacterial activity against Bacillus subtilis MTCC 121 at 50 ug/ml after 24 hr by agar well diffusion method
# Pseudomonas putida [2] = assay: Antibacterial activity against Pseudomonas putida at 50 ug/ml after 24 hr by agar well diffusion method
# [3] = system: Geobacillus stearothermophilus; assay: Antibacterial activity against Geobacillus stearothermophilus MTCC 8508 at 50 ug/ml after 24 hr by agar well diffusion method
# Aspergillus flavus [4] = assay: Antifungal activity against Aspergillus flavus at 100 ug/ml after 96 hr
# Aspergillus flavus [5] = assay: Antifungal activity against Aspergillus flavus at 50 ug/ml after 96 hr
# Escherichia coli [6] = assay: Antibacterial activity against Escherichia coli MTCC 51 at 10 ug/ml after 24 hr by agar well diffusion method
# Pseudomonas putida [7] = assay: Antibacterial activity against Pseudomonas putida at 100 ug/ml after 24 hr by agar well diffusion method
# [8] = system: Geobacillus stearothermophilus; assay: Antibacterial activity against Geobacillus stearothermophilus MTCC 8508 at 100 ug/ml after 24 hr by agar well diffusion method
# Bacillus subtilis [9] = assay: Antibacterial activity against Bacillus subtilis MTCC 121 at 100 ug/ml after 24 hr by agar well diffusion method
# Escherichia coli [10] = assay: Antibacterial activity against Escherichia coli MTCC 51 at 100 ug/ml after 24 hr by agar well diffusion method
# Aspergillus niger [11] = assay: Antifungal activity against Aspergillus niger at 100 ug/ml after 96 hr
# [12] = system: Geobacillus stearothermophilus; assay: Antibacterial activity against Geobacillus stearothermophilus MTCC 8508 at 10 ug/ml after 24 hr by agar well diffusion method
# Bacillus subtilis [13] = assay: Antibacterial activity against Bacillus subtilis MTCC 121 at 10 ug/ml after 24 hr by agar well diffusion method
# Pseudomonas putida [14] = assay: Antibacterial activity against Pseudomonas putida at 10 ug/ml after 24 hr by agar well diffusion method
# Escherichia coli [15] = assay: Antibacterial activity against Escherichia coli MTCC 51 at 50 ug/ml after 24 hr by agar well diffusion method
# Aspergillus niger [16] = assay: Antifungal activity against Aspergillus niger at 50 ug/ml after 96 hr
# Aspergillus flavus [17] = assay: Antifungal activity against Aspergillus flavus at 10 ug/ml after 96 hr
# Aspergillus niger [18] = assay: Antifungal activity against Aspergillus niger at 10 ug/ml after 96 hr
SMILES,diameter of the inhibition zone (DIZ) (Bacillus subtilis [1]),diameter of the inhibition zone (DIZ) (Pseudomonas putida [2]),diameter of the inhibition zone (DIZ) [3],inhibition at 100 µg/mL (Aspergillus flavus [4]),inhibition at 50 µg/mL (Aspergillus flavus [5]),diameter of the inhibition zone (DIZ) (Escherichia coli [6]),diameter of the inhibition zone (DIZ) (Pseudomonas putida [7]),diameter of the inhibition zone (DIZ) [8],diameter of the inhibition zone (DIZ) (Bacillus subtilis [9]),diameter of the inhibition zone (DIZ) (Escherichia coli [10]),inhibition at 100 µg/mL (Aspergillus niger [11]),diameter of the inhibition zone (DIZ) [12],diameter of the inhibition zone (DIZ) (Bacillus subtilis [13]),diameter of the inhibition zone (DIZ) (Pseudomonas putida [14]),diameter of the inhibition zone (DIZ) (Escherichia coli [15]),inhibition at 50 µg/mL (Aspergillus niger [16]),inhibition at 10 µg/mL (Aspergillus flavus [17]),inhibition at 10 µg/mL (Aspergillus niger [18])
Cc1ccc(-c2nc3ccccc3o2)s1,11.33%,22.33%,12.66%,88%,51.6%,12.45%,35.45%,19.66%,17.33%,34.29%,16.6%,inactive,inactive,13.47%,21.74%,5.23%,24.3%,4.89%
Cc1ccsc1-c1nc2cc(Cl)ccc2o1 [5-CHLORO-2-(3-METHYLTHIOPHEN-2-YL)BENZO[D]OXAZOLE],21.67%,25.67%,23.44%,84.2%,36.8%,10.33%,35.06%,31.84%,29.33%,33.17%,76.5%,12.66%,10.34%,12.12%,24.56%,47%,21.1%,17.5%
c1csc(-c2nc3ccccc3o2)c1,21.26%,24.34%,20.43%,88.5%,63.1%,11.66%,33.33%,31.33%,31.72%,36.66%,82.3%,10.33%,12.66%,9.66%,26.28%,64.7%,21.1%,41.7%
